Results on 26 molecules are retold here after patent publication US20220274979A1 (Bayer Pharma Aktiengesellschaft, priority 2018, published 2022).

As usually defined, the IC50 is the point on the concentration scale where inhibition reaches its midpoint. The inhibition is the drop in the measured response relative to a control, in per cent.

Test [1] has as its target T1, hSOS1 (hSOS1-mediated nucleotide exchange of hK-RasG12C) (Homo sapiens, UniProt Q07889).
T1 construct: hSOS1 (amino acid 564-1049); made in house; host or cells: E. coli BL21 (DE3)
T1 sequence (Q07889 with tags, fused parts or gaps): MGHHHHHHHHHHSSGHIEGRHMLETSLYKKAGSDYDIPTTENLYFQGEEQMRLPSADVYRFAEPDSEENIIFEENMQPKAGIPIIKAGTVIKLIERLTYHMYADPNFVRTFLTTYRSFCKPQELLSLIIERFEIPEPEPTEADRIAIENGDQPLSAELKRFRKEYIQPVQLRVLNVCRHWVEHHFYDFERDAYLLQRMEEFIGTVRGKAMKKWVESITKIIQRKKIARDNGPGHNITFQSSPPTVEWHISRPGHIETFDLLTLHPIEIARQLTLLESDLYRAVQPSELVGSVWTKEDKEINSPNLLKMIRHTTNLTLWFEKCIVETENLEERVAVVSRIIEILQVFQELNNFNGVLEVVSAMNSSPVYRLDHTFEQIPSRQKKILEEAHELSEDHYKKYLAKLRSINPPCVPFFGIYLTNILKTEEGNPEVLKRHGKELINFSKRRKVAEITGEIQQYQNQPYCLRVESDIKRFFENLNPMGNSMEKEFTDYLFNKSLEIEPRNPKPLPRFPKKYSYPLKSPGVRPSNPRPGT
The experiment in a line: Biochemical Assay 2: hK-RasG12C activation assay by hSOS1 at high GTP concentration (HTRF nucleotide exchange). To be noted: high GTP (50 μM GTP).

The target of test [2] is T2, hK-RasG12C - hSOS1 interaction (Homo sapiens, UniProt Q07889).
T2 construct: hSOS1 (amino acid 564-1049); made in house; host or cells: E. coli BL21 (DE3)
T2 sequence (Q07889 with tags, fused parts or gaps): T1 sequence (Q07889 with tags, fused parts or gaps)
The experiment in a line: Biochemical Assay 1: hK-RasG12C interaction assay with hSOS1 (HTRF). Type of test: binding. As to conditions: for IC50: values expressed as IC50. An outline of the steps:
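HTRF signal between GST-hK-RasG12C (10 nM working solution, anti-GST-Eu) and His-hSOS1 (20 nM working solution, anti-6His-XL665) was read in HEPES pH 7.4 buffer with 10 mM EDTA, 1 mM DTT and 100 mM KF at 20 °C.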
(TR-FRET usually uses a lanthanide donor and a delayed reading to cut background.)

Bounds are passed on as bounds.

`Cc1nc(N[C@H](C)c2cccc(Br)c2)c2cc(NC3CCOCC3)ncc2n1` [Example 46]: the IC50 was found to be 4220 nM in test [1] and 1290 nM in test [2].
For `Cc1nc(NC(C)c2ccc(-c3ccccc3CN(C)C)s2)c2cc(NCCN3CCOCC3)ncc2n1` (stereo not shown) [Example 48], the IC50 was determined as 141 nM in test [1] and 38.8 nM in test [2].
On to `Cc1nc(N[C@H](C)c2cccc(Br)c2)c2cc(NCCn3cccn3)ncc2n1` [Example 49, N4-[(1R)-1-(3-bromophenl)pethyl]-2-methyl-N6-[2-(1H-pyrazol-1-yl)ethyl]pyrido[3,4-d]pyrimidine-4,6-diamine], for which the figures for the IC50 in test [1] and in test [2] were 3630 nM and 1210 nM, respectively.
Take `CC(=O)NCCNc1cc2c(NC(C)c3ccc(-c4ccccc4CN(C)C)s3)nc(C)nc2cn1` (stereo not shown) [Example 51, N-{2-[(4-{[1-(5-{2-[(dimethylamino)methyl]phenyl}thiophen-2-yl)ethyl]amino}-2-methylpyrido[3,4-d]pyrimidin-6-yl)amino]ethyl}acetamide]: the IC50 was found to be 77.8 nM in test [1] and 32.9 nM in test [2].
The like results for `Cc1nc(NC(C)c2ccc(-c3ccccc3CN(C)C)s2)c2cc(Oc3cccc(O)c3)ncc2n1` (stereo not shown) [Example 52, 3-[(4-{[1-(5-{2-[(dimethylamino)methyl]phenyl}thiophen-2-yl)ethyl]amino}-2-methylpyrido[3,4-d]pyrimidin-6-yl)oxy]phenol] were, in that order, 856 nM and 202 nM.
In the same order, the values of `Cc1nc(NC(C)c2ccc(-c3ccccc3CN(C)C)s2)c2cc(NC3CCOCC3)ncc2n1` (stereo not shown) [Example 53, N4-[1-(5-{2-[(dimethylamino)methyl]phenyl}-2-thienyl)ethyl]-2-methyl-N6-(tetrahydro-2H-pyran-4-yl)pyrido[3,4-d]pyrimidine-4,6-diamine] are 223 nM and 54.7 nM.
In the same order, the values of `Cc1nc(NC(C)c2ccc(-c3ccccc3CN(C)C)s2)c2cc(NCCn3cccn3)ncc2n1` (stereo not shown) [Example 54, N4-[1-(5-{2-[(dimethylamino)methyl]phenyl}-2-thienyl)ethyl]-2-methyl-N6-[2-(1H-pyrazol-1-yl)ethyl]pyrido[3,4-d]pyrimidine-4,6-diamine] are 161 nM and 49.6 nM.
With `Cc1nc(NC(C)c2ccc(-c3ccccc3CN(C)C)s2)c2cc(NCCn3ccnc3)ncc2n1` (stereo not shown) [Example 56, N4-[1-(5-{2-[(dimethylamino)methyl]phenyl}-2-thienyl)ethyl]-N6-[2-(1H-imidazol-1-yl)ethyl]-2-methylpyrido[3,4-d]pyrimidine-4,6-diamine], the half-inhibitory concentration (IC50) in test [1] amounted to 93.9 nM; in test [2] it was 39.4 nM.
In the same order, the values of `COc1cc2c(N[C@H](C)c3cccc(Br)c3)nc(C)nc2cn1` [Example 57, N-[(1R)-1-(3-bromophenyl)ethyl]-6-methoxy-2-methylpyrido[3,4-d]pyrimidin-4-amine] are 1230 nM and 1970 nM.
As for `Cc1nc(NC(C)c2ccc(-c3ccccc3CN(C)C)s2)c2cc(Oc3cccc(C4=NCCN4C)c3)ncc2n1` (stereo not shown) [Example 58, N-[1-(5-{2-[(dimethylamino)methyl]phenyl}thiophen-2-yl)ethyl]-2-methyl-6-[3-(1-methyl-4,5-dihydro-1H-imidazol-2-yl)phenoxy]pyrido[3,4-d]pyrimidin-4-amine], the IC50 in test [1] was 141 nM; in test [2], 117 nM.
As for `CSc1cc2c(NC(C)c3ccc(-c4ccccc4CN(C)C)s3)nc(C)nc2cn1` (stereo not shown) [Example 59, N-[1-(5-{2-[(dimethylamino)methyl]phenyl}thiophen-2-yl)ethyl]-2-methyl-6-(methylsulfanyl)pyrido[3,4-d]pyrimidin-4-amine], the figures for the IC50 in test [1] and in test [2] were 67.9 nM and 66.2 nM, respectively.
`CC(=O)NCCOc1cc2c(N[C@H](C)c3cccc(Br)c3)nc(C)nc2cn1` [Example 62, N-{2-[(4-{[(1R)-1-(3-bromophenyl)ethyl]amino}-2-methylpyrido[3,4-d]pyrimidin-6-yl)oxy]ethyl}acetamide]: the figures for the IC50 in test [1] and in test [2] were 443 nM and 291 nM, respectively.
`CCOc1cc2c(NC(C)c3ccc(-c4ccccc4CN(C)C)s3)nc(C)nc2cn1` (stereo not shown) [Example 63, N-[1-(5-{2-[(dimethylamino)methyl]phenyl}thiophen-2-yl)ethyl]-6-ethoxy-2-methylpyrido[3,4-d]pyrimidin-4-amine]: the 50% inhibitory concentration (IC50) in test [1] turned out to be 28 nM; in test [2], 43.6 nM.
In the case of `COc1cc2c(NC(C)c3ccc(-c4ccccc4CN(C)C)s3)nc(C)nc2cn1` (stereo not shown) [Example 64, N-[1-(5-{2-[(dimethylamino)methyl]phenyl}thiophen-2-yl)ethyl]-6-methoxy-2-methylpyrido[3,4-d]pyrimidin-4-amine], the IC50 in test [1] came to 62.6 nM; in test [2] it was 59.5 nM.
In the case of `Cc1nc(NC(C)c2ccc(-c3ccccc3CN(C)C)s2)c2cc(OC3CCS(=O)(=O)CC3)ncc2n1` (stereo not shown) [Example 67, N-[1-(5-{2-[(dimethylamino)methyl]phenyl}thiophen-2-yl)ethyl]-6-[(1,1-dioxidotetrahydro-2H-thiopyran-4-yl)oxy]-2-methylpyrido[3,4-d]pyrimidin-4-amine], the IC50 in test [1] was 26.6 nM; in test [2] it was 42 nM.
As for `Cc1nc(NC(C)c2ccc(-c3ccccc3CO)s2)c2cc(F)ncc2n1` (stereo not shown) [Example 68, [2-(5-{1-[(6-fluoro-2-methylpyrido[3,4-d]pyrimidin-4-yl)amino]ethyl}thiophen-2-yl)phenyl]methanol], in test [1], the IC50 was above 20000 nM. In addition, the inhibition at 20 µM in test [2] (read-out: Assay 1 (hKRAS, hSOS Interaction) activity (expressed as IC50, or as % inhibition at 20 μM)) was 43.8%.
`Cc1nc(N[C@H](C)c2cccc(Br)c2)c2cc(OCCCN(C)C)ncc2n1` [Example 70, N-[(1R)-1-(3-bromophenyl)ethyl]-6-[3-(dimethylamino)propoxy]-2-methylpyrido[3,4-d]pyrimidin-4-amine]: the IC50 in test [1] was 951 nM; in test [2], 409 nM.
Regarding `Cc1nc(NC(C)c2ccc(-c3ccccc3CN(C)C)s2)c2cc(N3CCC3)ncc2n1` (stereo not shown) [Example 71, 6-(azetidin-1-yl)-N-[1-(5-{2-[(dimethylamino)methyl]phenyl}thiophen-2-yl)ethyl]-2-methylpyrido[3,4-d]pyrimidin-4-amine], the IC50 worked out at 55.5 nM in test [1] and 51.1 nM in test [2].
On to `Cc1nc(NC(C)c2ccc(-c3ccccc3CN(C)C)s2)c2cc(OCCCN(C)C)ncc2n1` (stereo not shown) [Example 72, N-[1-(5-{2-[(dimethylamino)methyl]phenyl}thiophen-2-yl)ethyl]-6-[3-(dimethylamino)propoxy]-2-methylpyrido[3,4-d]pyrimidin-4-amine], for which the IC50 in test [1] is 42.1 nM; in test [2] it was 34.2 nM.
As to `Cc1nc(NC(C)c2ccc(-c3ccccc3CN(C)C)s2)c2cc(OCC3CC3)ncc2n1` (stereo not shown) [Example 73, 6-(cyclopropylmethoxy)-N-[1-(5-{2-[(dimethylamino)methyl]phenyl}thiophen-2-yl)ethyl]-2-methylpyrido[3,4-d]pyrimidin-4-amine], the IC50 in test [1] was 129 nM; in test [2] it was 95 nM.
In the same order, the values of `Cc1nc(NC(C)c2ccc(-c3ccccc3CN(C)C)s2)c2cc(OCCO)ncc2n1` (stereo not shown) [Example 74, 2-[(4-{[1-(5-{2-[(dimethylamino)methyl]phenyl}thiophen-2-yl)ethyl]amino}-2-methylpyrido[3,4-d]pyrimidin-6-yl)oxy]ethanol] are 92.8 nM and 55.2 nM.
For `Cc1nc(N[C@H](C)c2cccc(Br)c2)c2cc(OCC3CC3)ncc2n1` [Example 75, N-[(1R)-1-(3-bromophenyl)ethyl]-6-(cyclopropylmethoxy)-2-methylpyrido[3,4-d]pyrimidin-4-amine], the IC50 in test [1] was determined as 3190 nM; in test [2], 4180 nM.
As for `Cc1nc(NC(C)c2ccc(-c3ccccc3CN(C)C)s2)c2cc(OCCCO)ncc2n1` (stereo not shown) [Example 76, 3-[(4-{[1-(5-{2-[(dimethylamino)methyl]phenyl}thiophen-2-yl)ethyl]amino}-2-methylpyrido[3,4-d]pyrimidin-6-yl)oxy]propan-1-ol], the IC50 in test [1] was found to be 49.9 nM; in test [2], 45.2 nM.
As to `Cc1nc(NC(C)c2ccc(-c3ccccc3CN(C)C)s2)c2cc(OC3CCS(=N)(=O)CC3)ncc2n1` (stereo not shown) [Example 77, N-[1-(5-{2-[(dimethylamino)methyl]phenyl}-2-thienyl)ethyl]-6-[(1-imino-1-oxidohexahydro-1lambda4-thiopyran-4-yl)oxy]-2-methylpyrido[3,4-d]pyrimidin-4-amine], the IC50 in test [1] stood at 58.8 nM; in test [2] it was 49.8 nM.
In the same order, the values of `Cc1nc(N[C@H](C)c2cccc(Br)c2)c2cc(OCCN(C)C)ncc2n1` [Example 78, N-[(1R)-1-(3-bromophenyl)ethyl]-6-[2-(dimethylamino)ethoxy]-2-methylpyrido[3,4-d]pyrimidin-4-amine] are 1040 nM and 1280 nM.
In the same order, the values of `Cc1nc(N[C@H](C)c2cccc(Br)c2)c2cc(NCCS(C)(=O)=O)ncc2n1` [Example 83] are 1340 nM and 575 nM.
